# Results as given in patent US20110039762A1, “TARGETED ANTIMICROBIAL MOIETIES” (C3 JIAN, INC., priority 2009, published 2011).
# Tests used:
# [1] = tested on: B. subtilis; assay: MIC (broth microdilution); type: cell-based, Bacillus subtilis
# Outline: (§1)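 MIC determined per NCCLS standard microdilution, with peptide 2-fold dilution series against ˜1×10^5 cfu/mL cells in Mueller-Hinton medium, incubated 18-24 h at 37° C.; ten independent experiments.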
# [2] = tested on: microorganisms; assay: Peptides having multiple activities (targeting/binding, antimicrobial, growth or phenotype altering)
# Source text: In certain embodiments, peptides described herein can have multiple activities. Thus for example, a peptide can have both binding/targeting activity and antimicrobial activity. Such peptides can be used, e.g., in a chimeric construct, for any or all of these properties. Thus, for example, a peptide designated “B” in Table 8 can be used as a targeting peptide. If it is also designated G or M it can also be used for antimicrobial activity.
# [3] = tested on: S. epidermidis; type: cell-based, Staphylococcus epidermidis; conditions: S. epidermidis; as to Organism, effect (morphology, biofilm and growth disruption): test concentration or dose not given here
# Outline: as §1
# [4] = tested on: T. rubrum; assay: MIC (broth microdilution); type: cell-based, Trichophyton rubrum
# Method: (§2) Typically, the in vitro antimicrobial activity of antimicrobial agents is tested using standard NCCLS bacterial inhibition assays, or MIC tests (see, National Committee on Clinical Laboratory Standards “Performance Standards for Antimicrobial Susceptibility Testing,” NCCLS Document M100-S5 Vol. 14, No. 16, December 1994; “Methods for dilution antimicrobial susceptibility test for bacteria that grow aerobically-Third Edition,” Approved Standard M7-A3, National Committee for Clinical Standards, Villanova, Pa.).
# (§3) Briefly, ˜1×10^5 cfu/mL bacteria were diluted in TH (S. mutans), or Mueller-Hinton (MH) broth (all other organisms) and distributed to 96-well plates. Serially-diluted (2-fold) peptides were then added and the plates incubated at 37° C. for 18-24 h. […] All experiments were conducted 10 times.
# [5] = tested on: E. faecalis; assay: Kill or inhibit growth/proliferation; morphology, biofilm and growth disruption (Tables 5, 6); type: cell-based, Enterococcus faecalis; parameters: key: A: Peptide aggregates; B: Less hyphal formation; Clumps; Diffuse clumps and small polyps; F: Diffuse growth; H: Thin; I: Growth inhibition; Microcolony formation; Rippled; Small polyps; Thick; W: Halo formation on top, microlonies on bottom; also: test concentration or dose not given here
# [6] = tested on: S. pneumoniae; assay: as above; type: cell-based, Streptococcus pneumoniae; parameters: key: A: Peptide aggregates; B: Less hyphal formation; Clumps; Diffuse clumps and small polyps; F: Diffuse growth; H: Thin; I: Growth inhibition; Microcolony formation; Rippled; Small polyps; Thick; W: Halo formation on top, microlonies on bottom; also: test concentration or dose not given here
# [7] = tested on: E. faecalis; assay: MIC (broth microdilution); type: cell-based, Enterococcus faecalis
# Method: as §2, §3
# [8] = tested on: A. niger; assay: MIC (broth microdilution); type: cell-based, Aspergillus niger
# Outline: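 Organisms were diluted to ˜1×10^5 cfu/mL in Mueller-Hinton broth and dispensed into plates. Peptides were added as 2-fold serial dilutions. Plates were then held at 37° C. for 18-24 h.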
# [9] = tested on: C. albicans; assay: Kill or inhibit growth/proliferation; morphology, biofilm and growth disruption (Tables 5, 6); type: cell-based, Candida albicans; parameters: key: A: Peptide aggregates; B: Less hyphal formation; Clumps; Diffuse clumps and small polyps; F: Diffuse growth; H: Thin; I: Growth inhibition; Microcolony formation; Rippled; Small polyps; Thick; W: Halo formation on top, microlonies on bottom; also: test concentration or dose not given here
# [10] = tested on: MRSA; assay: MIC (broth microdilution); type: cell-based, Methicillin-resistant Staphylococcus aureus
# Outline: as §1
# [11] = tested on: MRSA; assay: Kill or inhibit growth/proliferation; morphology, biofilm and growth disruption (Tables 5, 6); type: cell-based, Methicillin-resistant Staphylococcus aureus; parameters: key: A: Peptide aggregates; B: Less hyphal formation; Clumps; Diffuse clumps and small polyps; F: Diffuse growth; H: Thin; I: Growth inhibition; Microcolony formation; Rippled; Small polyps; Thick; W: Halo formation on top, microlonies on bottom; also: test concentration or dose not given here
# [12] = tested on: S. epidermidis; assay: as above; type: cell-based, Staphylococcus epidermidis; parameters: key: A: Peptide aggregates; B: Less hyphal formation; Clumps; Diffuse clumps and small polyps; F: Diffuse growth; H: Thin; I: Growth inhibition; Microcolony formation; Rippled; Small polyps; Thick; W: Halo formation on top, microlonies on bottom
# [13] = tested on: C. albicans; assay: MIC (broth microdilution); type: cell-based, Candida albicans
# Method: as §2, §3
# [14] = tested on: B. subtilis; assay: Kill or inhibit growth/proliferation; morphology, biofilm and growth disruption (Tables 5, 6); type: cell-based, Bacillus subtilis; parameters: key: A: Peptide aggregates; B: Less hyphal formation; Clumps; Diffuse clumps and small polyps; F: Diffuse growth; H: Thin; I: Growth inhibition; Microcolony formation; Rippled; Small polyps; Thick; W: Halo formation on top, microlonies on bottom; also: test concentration or dose not given here
# [15] = tested on: C. jeikeium; assay: as above; type: cell-based, Corynebacterium jeikeium; parameters: key: A: Peptide aggregates; B: Less hyphal formation; Clumps; Diffuse clumps and small polyps; F: Diffuse growth; H: Thin; I: Growth inhibition; Microcolony formation; Rippled; Small polyps; Thick; W: Halo formation on top, microlonies on bottom; also: test concentration or dose not given here
sequence,measurement,setting,value
MRFGSLALVAYDSAIKHSWPRPSSVRRLRM [PF-672],MIC,[1],"B. subtilis, 0.78 μM"
same,Activities,[2],G B M
same,MIC,[3],"S. epidermidis, 0.39 μM"
same,MIC,[4],"T. rubrum, 0.78 μM"
same,"Organism, effect (morphology, biofilm and growth disruption)",[5],E. faecalis (I)
same,"Organism, effect (morphology, biofilm and growth disruption)",[6],S. pneumoniae (I)
same,MIC,[7],"E. faecalis, 3.13 μM"
same,MIC,[8],"A. niger, 3 μM"
same,"Organism, effect (morphology, biofilm and growth disruption)",[9],C. albicans (I)
same,MIC,[10],"MRSA , 1.56 μM"
same,"Organism, effect (morphology, biofilm and growth disruption)",[11],MRSA (I)
same,"Organism, effect (morphology, biofilm and growth disruption)",[12],S. epidermidis (I)
same,MIC,[13],"C. albicans, 1.56 μM"
same,"Organism, effect (morphology, biofilm and growth disruption)",[14],B. subtilis (I)
same,"Organism, effect (morphology, biofilm and growth disruption)",[15],C. jeikeium (R)
